Test results from ChEMBL document CHEMBL1154175, “A dynamic target-based pharmacophoric model mapping the CD4 binding site on HIV-1 gp120 to identify new inhibitors of gp120-CD4 protein-protein interactions” (Bioorg Med Chem Lett, 2009).
pEC50: −log10 of the molar value. The source made the active and inactive calls. The calls are words filed in the database; no cut-off is given here.

Legend:
[1] = test system: Human immunodeficiency virus 1; assay: Antiviral activity against HIV1 NL4-3 infected in human MT4 cells assessed as inhibition of virus-induced cytopathic effect after 5 days by MTT assay; type: functional, organism-based; conditions: Human immunodeficiency virus 1, NL4-3, MT4, 120 h
[2] = Cytotoxicity against human MT4 cells after 5 days by MTT assay; type: cell-based
[3] = test system: Human immunodeficiency virus 1; assay: Antiviral activity against HIV1 NL4-3 with gp120 mutation […] infected in human MT4 cells assessed as inhibition of virus-induced cytopathic effect after 5 days by MTT assay; type: functional, organism-based; conditions: Human immunodeficiency virus 1, NL4-3, MT4, 120 h
[4] = test system: Human immunodeficiency virus 1; assay: Antiviral activity against HIV1 NL4-3 infected in human MT4 cells assessed as capsid p24antigen production at 100 times EC50 treated before infection by ELISA; type: functional, organism-based
[5] = test system: Human immunodeficiency virus 1; assay: Antiviral activity against HIV1 NL4-3 infected in human MT4 cells assessed as capsid p24antigen production at 100 times EC50 treated after infection by ELISA; type: functional, organism-based

| SMILES | pEC50 [1] | CC50 at 120 h [2] [µM] | pEC50 [3] | Activity [4] | Activity [5] |
| --- | --- | --- | --- | --- | --- |
| COc1nc(N/N=C/c2ccc(-c3ccc(Cl)c([N+](=O)[O-])c3)o2)nc(N2CCOCC2)n1 | < 4.27 | > 54 | – | – | – |
| CCOC(=O)[C@H](Cc1ccc(/N=C/c2cc(Br)ccc2O)cc1)N1C(=O)c2ccccc2C1=O | 4.66 | > 48 | < 4.32 | – | – |
| COc1ccc(/C=N/c2nc3ccccc3n2Cc2ccc(Cl)cc2)cc1OC | < 4.21 | > 62 | – | – | – |
| C[C@@H]1CN(C(=O)c2ccccc2)CCN1C(=O)C(=O)c1cc2ccccc2[nH]1 | 7.62 | > 2.66 | < 5.58 | – | – |
| C=CCn1c(SCc2ccc(C(=O)NCCO)cc2)nc2ccccc2c1=O | < 4.20 | > 63 | – | – | – |
| CCOC(=O)/C(=C\c1ccc(-c2cccc([N+](=O)[O-])c2)o1)C(=O)c1ccccc1 | 5.05 | > 64 | < 4.19 | Active | inactive |
